From patent US20060167276A1, “Clausenamide c5-hydroxyl derivatives and n-substituted derivatives, processes for their preparation, its composition and use” (priority 2002, published 2006)

Key:
[1] = several behavioral studies; cited from earlier work
[2] = in vivo and in vitro; cited from earlier work
rat hippocampus = test: LTP / synaptic transmission in rat hippocampus (population spike amplitude, dentate gyrus); format: in vivo; conditions: for Relative PS (PSA %): lateral ventricle, prior administration = 100
Description: Male adult SD Rats (5 per group) were anesthetized with 20% (w/v) urethane carbamate (1.0 g·kg^−1, ip) and fixed in a stereotaxic head holder. According to the reference of Pellegrino stereotaxic spectrum of rat, recording electrodes (stainless steel needle of 0.2 mm diameter were insulted except for 0.2 mm tip) were placed in the dentate gyrus granule cell layer. The stimulating electrodes (two stainless steel needles of 0.15 mm diameter coated with Teflon except for the 0.2 mm tip, and the distance between two needles was 0.5 mm) were planted between the fibre of perforant path (PP) in rat. Continuous pulse was provided by electronic stimulator, and delivered to PP through stimulus isolator and stimulating electrodes. Electrode depth was then adjusted until a typical excitatory postsynaptic potential (EPSP) was observed. Electric current was magnified by amplifier and collected by computer, then processed by DataWave software. The stimulus intensity was adjusted to produce population spike (PS) with a slope that was ≈50% of the maximum. Single-pulse test stimuli were at an interval of 30 sec during the experiment. Population spike amplitude (PSA) was recorded and the relatively percent of PSA was calculated according to the formula (PSA/basic value).

[3] = tested on: C17-2 mouse brain neural stem cells; test: Cell proliferation of mouse brain neural stem cells (MTT, OD 490 nm); format: cell-based; conditions: for Result (OD value): MTT at 4th day, OD 490 nm; for Cell proliferation %: control group = 100%
Protocol: C17-2 mouse brain neural stem cells (C17-2 cells) were continuously cultured in 1640 medium with 10% horse serum and 10% fetal bovine serum at 5% CO2 and 37° C., dissociated to single cell suspension by 0.1% trypsin solution, centrifuged at 1,000 rpm×5 min and rinsed with medium. The cells were seeded in a 96-well plate, 1×10^3 cells per well, 3 well per group, continuously cultured. After 24 hours, the test compounds were added, doses of each of the C5-hydroxyl substituted clausenamides and N-substituted clausenamide derivatives were 0.1 μM, 1 μM and 10 μM respectively. The growth situation of the cells was observed under a microscope, once daily. At the 4th day, media in each well were pipetted, phosphate buffer solution containing MTT was added. 4 Hours later, the fluid was discarded, and a DMSO solution was added. The cells were incubated at 37° C. for 10 min under shaken. OD values on 490 nm of each well were detected. Set the growth rate of the control group as 100%, and the growth rates of each dose were given by comparison with the control group and t-tested.

SMILES | nootropic effect [1] | content in the metabolites of (−) clausenamide compared with the corresponding (+) isomers in the metabolites of (+) clausenamide [2] | Relative PS (PSA %) (rat hippocampus; 15 min after administration) | Relative PS (PSA %) (rat hippocampus; 30 min after administration) | Relative PS (PSA %) (rat hippocampus; 45 min after administration) | Relative PS (PSA %) (rat hippocampus; 60 min after administration) | effects on synaptic transmission (rat hippocampus; P<0.05 vs. control, n=5) | effects on cell proliferation of mouse brain neural stem cells (conclusion) [3] | promotion effects on cell proliferation of mouse brain neural stem cells ([3]; at doses of 0.1 μM and 1 μM) | Result (OD value) ([3]; dose 10^−5 M) | Cell proliferation % ([3]; dose 10^−5 M) | Result (OD value) ([3]; dose 10^−6 M) | Cell proliferation % ([3]; dose 10^−6 M) | Result (OD value) ([3]; dose 10^−7 M) | Cell proliferation % ([3]; dose 10^−7 M)
CN1C(=O)C(O)C(c2ccccc2)C1C(O)c1ccccc1 (racemic) [clausenamide] | Significant nootropic effect |  |  |  |  |  |  |  |  |  |  |  |  |  | 
O=C1C(O)C(c2ccccc2)C(C(O)c2ccccc2)N1CO (single isomer, unassigned; (-)) [(−)CM1, (−) N-hydroxymethyl norclausenamide] |  | significantly higher |  |  |  |  |  |  |  |  |  |  |  |  | 
CN1C(=O)C(O)C(c2ccccc2)C1(O)C(O)c1ccccc1 (single isomer, unassigned; (-)) [(−)CM2, (−) 5-hydroxyclausenamide] |  | significantly higher |  |  |  |  |  |  |  |  |  |  |  |  | 
CN1C(=O)[C@H](O)[C@@H](c2ccccc2)[C@@]1(O)[C@H](O)c1ccccc1 [(+)II3, (+)-(3R,4R,5R,6R)-5-hydroxy-clausenamide] |  |  | 91.74 ± 17.21% | 117.87 ± 14.93% | 161.14 ± 13.94 % | 188.03 ± 5.28 % | significantly upstanding effects | significant effects | significant promotion effects | 0.131 ± 0.009 | 95.62% | 0.199 ± 0.024 | 145.26% | 0.253 ± 0.020 | 184.67%
CC(=O)O[C@@H]1C(=O)N(C)[C@@](O)([C@H](O)c2ccccc2)[C@H]1c1ccccc1 [(−)-3-O-AC-II1, (−)-(3S,4S,5S,6R)-3-O-acetyl-5-hydroxy-clausenamide] |  |  | 78.91 ± 13.90% | 83.73 ± 13.59% | 94.60 ± 8.87% | 102.66 ± 2.88% |  |  |  | 0.063 ± 0.014 | 45.99% | 0.072 ± 0.006 | 52.55% | 0.179 ± 0.004 | 130.66%
CN1C(=O)[C@H](O)[C@@H](c2ccccc2)[C@]1(O)[C@H](O)c1ccccc1 [(−)II2, (−)-(3R,4R,5S,6R)-5-hydroxy-clausenamide] |  |  | 110.55 ± 7.27% | 103.09 ± 10.12% | 94.49 ± 10.53% | 88.40 ± 14.42% |  |  |  | 0.156 ± 0.095 | 113.87% | 0.163 ± 0.038 | 118.98% | 0.233 ± 0.033 | 170.07%
CN1C(=O)[C@@H](O)[C@H](c2ccccc2)[C@]1(O)[C@@H](O)c1ccccc1 [(−)II3, (−)-(3S,4S,5S,6S)-5-hydroxy-clausenamide] |  |  | 92.83 ± 17.54% | 87.11 ± 30.54% | 97.34 ± 25.71% | 98.30 ± 28.59% |  |  |  | 0.088 ± 0.006 | 64.23% | 0.187 ± 0.020 | 136.50% | 0.168 ± 0.076 | 122.63%
